These results are taken from patent publication US20230234936A1, “COMPOUND FOR TARGETING AND DEGRADING PROTEIN, AND PREPARATION METHOD THEREFOR AND USE THEREOF” (SHANGHAI LEADINGTAC PHARMACEUTICAL CO., LTD., priority 2020, published 2023).

Test [1] has as its target T1, IRAK4 protein in THP-1 cells (Homo sapiens, UniProt Q9NWZ3).
T1 construct: endogenous in cells; host or cells: THP-1
T1 sequence (Q9NWZ3 1-460): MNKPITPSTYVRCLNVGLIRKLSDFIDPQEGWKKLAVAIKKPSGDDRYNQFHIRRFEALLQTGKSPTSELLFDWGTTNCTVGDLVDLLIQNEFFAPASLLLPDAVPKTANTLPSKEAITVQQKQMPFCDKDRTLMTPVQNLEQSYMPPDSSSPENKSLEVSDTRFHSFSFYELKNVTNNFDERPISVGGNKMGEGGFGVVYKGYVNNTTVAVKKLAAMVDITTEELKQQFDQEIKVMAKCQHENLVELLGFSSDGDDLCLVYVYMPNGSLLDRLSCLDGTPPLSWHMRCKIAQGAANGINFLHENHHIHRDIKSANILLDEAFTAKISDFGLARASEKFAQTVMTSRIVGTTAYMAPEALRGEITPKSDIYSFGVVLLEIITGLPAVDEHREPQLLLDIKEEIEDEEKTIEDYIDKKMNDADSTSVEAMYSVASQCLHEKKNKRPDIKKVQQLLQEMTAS
In words: Degradation of IRAK4 in THP-1 cells (Western blot). The test is classed as cell-based. The settings on record: 24 hours, compound 1-3000 nM. The method in brief: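 THP-1 cells (5×10^5/well) treated 24 h with compound at 1–3000 nM final. IRAK4 in lysates quantified by Western blot, normalized to internal reference and compared with control to give degradation rate; DC50 and Dmax from nonlinear fit of log concentration.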

Test [2] deals with T2, IRAK4 kinase (Homo sapiens, UniProt Q9NWZ3).
T2 sequence (Q9NWZ3 1-460): T1 sequence (Q9NWZ3 1-460)
The experiment in a line: IRAK4 kinase activity test (KinEASE-STK S1 HTRF kit). The test is classed as biochemical. The following applies: 2.5 nM kinase, 1 μM biotinylated polypeptide substrate, 7 μM ATP, 37° C. 120 min. The method in brief:
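Compound in DMSO, serially diluted to 10000–0.038 nM final, incubated with 2.5 nM kinase, 1 μM biotinylated peptide substrate and 7 μM ATP at 37° C for 120 min. Eu-anti-phospho-Ser/Thr antibody plus streptavidin-XL665 stopped the reaction (1 h RT). HTRF 665/620 nm ratio gave % inhibition versus control; IC50 from nonlinear log-concentration fit.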

What is called DC50 is the concentration giving 50% degradation. Higher therefore signals degradation only at high concentration. For orientation: IC50 means the concentration needed to halve the response being measured. Lower therefore signals greater potency in that assay. With `COc1cc2nn(C3CCN(CC4CCN(CCOc5ccc6c(c5)C(=O)N(C5CCC(=O)NC5=O)C6=O)CC4)CC3)cc2cc1NC(=O)c1cccc(C(F)(F)F)n1` (centres unmarked) [Control group 2, N-(2-(1-((1-(2-((2-(2,6-dioxopiperidin-3-yl)-1,3-dioxoisoindol-5-yl)oxy)ethyl)piperidin-4-yl)methyl)piperidin-4-yl)-6-methoxy-2H-indazol-5-yl)-6-(trifluoromethyl) pyridinecarboxamide, reference compound], the 50% degradation concentration (DC50) in test [1] was determined as 40.6 nM. The compound also yielded a 50% inhibitory concentration (IC50) in test [2] of 15.2 nM.

Broadly, the Dmax is the greatest extent of degradation seen. Turning to `CN(CC1CCN(c2cccc3c2C(=O)N(C2CCC(=O)NC2=O)C3=O)CC1)C[C@H]1CC[C@H](n2cc3cc(NC(=O)c4cccc(C(F)(F)F)n4)c(C(C)(C)O)cc3n2)CC1` (some centres unmarked) [Control group 3, N-(2-((1r,4r)-4-((((1-(2-(2,6-dioxopiperidin-3-yl)-1,3-dioxoisoindolin-4-yl)piperidin-4-yl)methyl) (methyl)amino)methyl)cyclohexyl)-6-(2-hydroxyprop-2-yl)-2H-indazol-5-yl)-6-(trifluoromethyl) pyridinecarboxamide, reference compound], in test [1], the DC50 amounted to 19.8 nM and the Dmax was determined as 75.3%. In test [2], this compound yielded an IC50 of 16.2 nM.

In test [1], `CC(C)(O)c1cc2nn(C3CCN(CC4CCC5(CC4)CCN(C(=O)c4ccc(Cl)c(N6CCC(=O)NC6=O)c4)CC5)CC3)cc2cc1NC(=O)c1cccc(C(F)(F)F)n1` [Example 31, N-(2-(1-((3-(4-chloro-3-(2,4-dioxotetrahydro-pyrimidin-1 (2H)-yl)benzoyl)-3-azaspiro [5.5]undec-9-yl)methyl)piperdin-4-yl)-6-(2-hydroxyprop-2-yl)-2H-indazol-5-yl)-6-(trifluoro-methyl) pyridinecarbox-amide] showed a DC50 of 2.6 nM and a Dmax of 97.1%. In addition, 14 nM corresponded to half-maximal inhibition in test [2] (IC50).
